Measured values: patent publication US12509474B2, “Inhibitors of complement factors and uses thereof” (Annexon, Inc., priority 2020, dated 2025)
Where a name gives a salt, the structure may show the parent alone.

molecular target: T1, human C1s protein (Homo sapiens, UniProt P09871); experiment: C1s enzymatic assay (hydrolysis of YLGR-Rh110-dPro); type: biochemical; details: substrate YLGR-Rh110-dPro 20 μM, 15 min pre-incubation, 60 min RT, fluorescence, read-out: hC1s pIC50 (converted)
T1 construct: A104
T1 sequence (P09871 16-688): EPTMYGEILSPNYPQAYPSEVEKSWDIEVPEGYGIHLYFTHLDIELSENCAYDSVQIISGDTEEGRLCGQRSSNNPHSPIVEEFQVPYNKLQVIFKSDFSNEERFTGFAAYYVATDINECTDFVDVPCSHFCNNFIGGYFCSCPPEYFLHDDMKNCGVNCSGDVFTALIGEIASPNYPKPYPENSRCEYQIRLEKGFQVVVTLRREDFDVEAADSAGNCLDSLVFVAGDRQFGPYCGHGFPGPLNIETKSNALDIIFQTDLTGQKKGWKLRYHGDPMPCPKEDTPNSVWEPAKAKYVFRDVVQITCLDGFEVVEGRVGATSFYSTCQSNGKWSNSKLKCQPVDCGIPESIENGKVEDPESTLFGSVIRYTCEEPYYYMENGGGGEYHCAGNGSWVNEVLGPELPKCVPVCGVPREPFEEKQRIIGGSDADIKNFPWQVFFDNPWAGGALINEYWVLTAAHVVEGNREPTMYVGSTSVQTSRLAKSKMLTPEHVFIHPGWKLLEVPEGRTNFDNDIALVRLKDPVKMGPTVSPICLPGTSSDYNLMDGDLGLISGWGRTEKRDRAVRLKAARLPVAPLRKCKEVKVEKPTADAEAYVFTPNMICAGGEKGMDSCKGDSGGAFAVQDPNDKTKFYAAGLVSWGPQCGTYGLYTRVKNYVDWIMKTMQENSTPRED
In short: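 Fluorogenic assay in which C1s cleaves YLGR-Rh110-dPro (20 μM final) to release fluorescent Rh110, in buffer with 0.1 mg/mL BSA. Enzyme was preincubated 15 min with compound before substrate was added. Compounds were run as 11-point curves, with DMSO as high control and Nafamostat as low control.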

IC50	Structure (SMILES)
13.2 nM	Nc1cnnc2cc(-c3ccc(CC(=O)O)c(B(O)O)c3)ccc12 [Example 127, 2-[4-(4-aminocinnolin-7-yl)-2-(dihydroxyboranyl)phenyl]acetic Acid]
0.55 nM	Nc1cnnc2cc(-c3cc(B(O)O)cc4c3OC(F)(F)O4)ccc12 [Example 128, [7-(4-aminocinnolin-7-yl)-2,2-difluoro-2H-1,3-benzodioxol-5-yl]boronic Acid]
6920 nM	COc1ccc(B(O)O)cc1-c1ccc2nccc(N)c2c1 [Example 129, [3-(4-aminoquinolin-6-yl)-4-methoxyphenyl]boronic Acid Formic Acid Salt]
67.6 nM	COc1ccc(B(O)O)cc1-c1cnc2c(N)nccc2c1 [Example 130, [3-(8-amino-1,7-naphthyridin-3-yl)-4-methoxyphenyl]boronic Acid Formic Acid Salt]
0.617 nM	Cc1nnc(N)c2ccc(-c3cc(B(O)O)ccc3OC(F)F)cc12 [Example 131, [3-(1-amino-4-methylphthalazin-6-yl)-4-(difluoromethoxy)phenyl]boronic Acid Formic Acid Salt]
2.09 nM	COc1cc(C)c(B(O)O)cc1-c1ccc2c(N)cnnc2c1 [Example 134, [5-(4-aminocinnolin-7-yl)-4-methoxy-2-methylphenyl]boronic Acid Formic Acid Salt]
2.82 nM	COCc1cc(OC)c(-c2ccc3c(N)cnnc3c2)cc1B(O)O [Example 137, [5-(4-aminocinnolin-7-yl)-4-methoxy-2-(methoxymethyl)phenyl]boronic Acid Formic Acid Salt]
1.62 nM	Nc1cnnc2cc(-c3cc(B(O)O)cc4c3OCC4)ccc12 [Example 138, [7-(4-aminocinnolin-7-yl)-2,3-dihydro-1-benzofuran-5-yl]boronic Acid Formic Acid Salt]
> 25100 nM	COc1ccc(B(O)O)cc1-c1cnc2cnccc2c1 [Example 139, [4-methoxy-3-(1,7-naphthyridin-3-yl)phenyl]boronic Acid]
57.5 nM	Nc1cnnc2cc(-c3cc(B(O)O)ccc3N3CCOCC3)ccc12 [Example 143, [3-(4-aminocinnolin-7-yl)-4-(morpholin-4-yl)phenyl]boronic Acid Formic Acid Salt]
66.1 nM	COc1ccc(B(O)O)cc1-c1cnc2c(N)cnnc2c1 [Example 144, (3-{4-aminopyrido[3,2-C]pyridazin-7-yl}-4-methoxyphenyl)boronic Acid]
3.09 nM	Nc1cnnc2cc(-c3cc(B(O)O)cc4c3OCCC4)ccc12 [Example 145, [8-(4-aminocinnolin-7-yl)-3,4-dihydro-2H-chromen-6-yl]boronic Acid Formic Acid Salt]
5.25 nM	Cn1nc(C2CC2)c2c(B(O)O)cc(-c3ccc4c(N)cnnc4c3)cc21 [Example 146, [6-(4-aminocinnolin-7-yl)-3-cyclopropyl-1-methyl-1H-indazol-4-yl]boronic Acid]
0.603 nM	Nc1cnnc2cc(-c3cc(B(O)O)c4occc4c3)ccc12 [Example 149, [5-(4-aminocinnolin-7-yl)-1-benzofuran-7-yl]boronic Acid Formic Acid Salt]
50.1 nM	Nc1cnnc2cc(-c3cc(B(O)O)ccc3N3CCCC3)ccc12 [Example 150, [3-(4-aminocinnolin-7-yl)-4-(pyrrolidin-1-yl)phenyl]boronic Acid Formic Acid Salt]
55 nM	Nc1cnnc2cc(-c3ccc4c(c3)B(O)ON=C4)ccc12 [Example 156, 7-(4-aminocinnolin-7-yl)-1H-2,3,1-benzoxazonin-1-ol Formic Acid Salt]
> 25100 nM	COc1ccc(B(O)O)cc1-c1ccc2c(O)cnnc2c1 [Example 158, [3-(4-hydroxycinnolin-7-yl)-4-methoxyphenyl]boronic Acid]
1.26 nM	O=CO.[2H]C([2H])([2H])Oc1ccc(B(O)O)cc1-c1ccc2c(N)cnnc2c1 [Example 159, [3-(4-aminocinnolin-7-yl)-4-(^2H3)methoxyphenyl]boronic Acid Formic Acid Salt]
> 25100 nM	COc1ccc(B(O)O)cc1-c1ccc2c(O)nncc2c1 [Example 160, [3-(1-hydroxyphthalazin-6-yl)-4-methoxyphenyl]boronic Acid]
> 25100 nM	COc1ccc(B(O)O)cc1-c1ccc2ccncc2c1 [Example 161, [3-(isoquinolin-7-yl)-4-methoxyphenyl]boronic Acid]
> 25100 nM	COc1ccc(B(O)O)cc1-c1cc(OC)c2ccnnc2c1 [Example 162, [4-methoxy-3-(5-methoxycinnoline-7-yl)phenyl]boronic Acid]
1.05 nM	CC(F)(F)Oc1ccc(B(O)O)cc1-c1ccc2c(N)cnnc2c1 [Example 163, [3-(4-aminocinnolin-7-yl)-4-(1,1-difluoroethoxy)phenyl]boronic Acid Formic Acid Salt]
12.6 nM	CS(=O)(=O)c1ccc(B(O)O)cc1-c1ccc2c(N)cnnc2c1 [Example 164, [3-(4-aminocinnolin-7-yl)-4-methylsulfonylphenyl]boronic acid formic acid salt]
7.41 nM	Nc1cnnc2cc(-c3cc(B(O)O)ccc3N3CCNS3(=O)=O)ccc12 [Example 165, [3-(4-aminocinnolin-7-yl)-4-(1,1-dioxo-1,2,5-thiadiazolidin-2-yl)phenyl]boronic Acid]
1.66 nM	Nc1cnnc2cc(-c3cc(B(O)O)ccc3Oc3ccc(F)cc3)ccc12 [Example 167, [3-(4-aminocinnolin-7-yl)-4-(4-fluorophenoxy)phenyl]boronic Acid Formic Acid Salt]
1.32 nM	Nc1cnnc2cc(-c3cc(B(O)O)ccc3Oc3cncs3)ccc12 [Example 168, [3-(4-aminocinnolin-7-yl)-4-(1,3-thiazol-5-yloxy)phenyl]boronic Acid Formic Acid Salt]
1.45 nM	Nc1cnnc2cc(-c3cc(B(O)O)ccc3Oc3nccs3)ccc12 [Example 169, [3-(4-aminocinnolin-7-yl)-4-(1,3-thiazol-2-yloxy)phenyl]boronic Acid Formic Acid Salt]
1.07 nM	CC1(C)Cc2cc(B(O)O)cc(-c3ccc4c(N)cnnc4c3)c2O1 [Example 170, [7-(4-aminocinnolin-7-yl)-2,2-dimethyl-2,3-dihydro-1-benzofuran-5-yl]boronic Acid Formic Acid Salt]
1.29 nM	Cc1ncc(Oc2ccc(B(O)O)cc2-c2ccc3c(N)cnnc3c2)s1 [Example 171, [3-(4-aminocinnolin-7-yl)-4-(2-methylthiazol-5-yl)oxy-phenyl]Boronic Acid Formic Acid Salt]

Structure (SMILES)	IC50
Nc1cnnc2cc(-c3cc(B(O)O)ccc3OC3CC(F)(F)C3)ccc12 [Example 142, [3-(4-aminocinnolin-7-yl)-4-(3,3-difluorocyclobutoxy)phenyl]boronic Acid Formic Acid Salt]	1.17 nM
